Laboratory results as given in patent US20220243211A1, “PEPTIDE NUCLEIC ACID COMPOSITIONS WITH MODIFIED HOOGSTEEN BINDING SEGMENTS AND METHODS OF USE THEREOF” (Yale University, priority 2019, published 2022).
[PNA-N] = peptide nucleic acid monomer (N: the base)

What was measured:
[1] = test system: CFTR function in the nasal epithelium; assay: Nasal potential difference (NPD) in CF mice after intranasal NPs; type: in vivo, mouse; settings: F508del CF mice, intranasal PBAE/PLGA/MPG NPs with PNA/donor DNA
Method: FIG. 4 is a dot plot showing functional correction of CFTR with modified NPs in vivo. Mice were treated by intranasal administration with NPs. Nasal potential difference measurements were evaluated before and after NP treatments. The response to a 0Cl+amiloride+forksolin perfusate after NP treatment was compared to the response prior to treatment. Pre- and post-treatment changes in NPD were compared using paired t tests for each mouse. Each mouse is represented with an individual data point; in addition, the mean is shown with a horizontal line, surround by error bars showing the standard error of the mean. In the last panel, nasal potential difference changes in wild type mice are shown for comparison. […]
To determine if gamma tcPNAs were more efficient editing agents than classic PNA in vivo, CF mice were treated intranasally with PBAE/PLGA/MPG NPs containing mCF-PNA/DNA or γmCF-PNA-h/DNA on days 1, 3, 6, and 9. Subsequently, CF mice were assessed for CFTR function in the nasal epithelium by measuring the nasal potential difference (NPD), a non-invasive assay used to detect cAMP-stimulated chloride transport in vivo. […] NPD is assessed in all mice prior to treatment with NPs and reassessed after treatment such that alterations in this measure can be used as a surrogate of restored CFTR function.

[2] = Zeta potential and hydrodynamic diameter of formulated NPs by dynamic light scattering; type: physicochemical; settings: NPs containing PNA/donor DNA, PBS buffer, n = 3; for Z Av Diameter: dynamic light scattering
Method: Blank NPs containing no PNA and a mismatch donor DNA as a control were prepared as a control. The mismatched donor DNA was purposely added into blank NPs because addition of donor DNA helps to produce a similar surface charge on the control NPs as on the test NPs encapsulated with PNA/donor DNA combinations. […] All NP in the diameters were in the range of 200-350 nm, as measured by dynamic light scattering (Table 1), consistent with previous measurements (McNeer, et al., Nat Commun 6, 6952 (2015), Fields, et al., Adv Healthc Mater 4, 361-366 (2015), Fields, et al., J Control Release 164, 41-48 (2012)). PNA/DNA-loaded NPs were cationic (Fields, et al., Adv Healthc Mater 4, 361-366 (2015), Fields, et al., J Control Release 164, 41-48 (2012)) for PBAE/PLGA/MPG NPs (Table 1).

[3] = mouse, in vivo
Method: To collect the lungs for histopathology, a midline incision from sternum to diaphragm was performed and, to remove blood from the pulmonary circulation, PBS+heparin was perfused via the right ventricle using a 20 g needle. Lungs were inflated with 0.5% low melt agarose at constant pressure, then removed from the chest and placed in fixative. Paraffin embedded tissues were stained with hemotoxylin and eosin stain for imaging.
To investigate whether NPs could effectively deliver the gene editing reagents to the lung TAMRA-conjugated mouse specific PNA (γmCF PNA-h) and mouse donor DNA into PBAE/PLGA/MPG NPs were formulated. After intranasal administration of γmCF PNA-h/DNA NPs into CF mice, the lungs were harvested and PNA uptake was assessed by fluorescence microscopy.

Substance	treated mice showing response to cyclic AMP stimulation (cyclic AMP activated Cl− conductance) in NPD [1] [%]	Zeta Potential [2] [mV]	Z Av Diameter [2] [nm]	histology of nasal epithelia / respiratory tract [3]
H-KKK-JTTTTJJJ-OOO-CCCTTTTCAAGGTGAGTAG-KKK-NH2 [mCF PNA] (NTTTTNNNCCCTTTTCAAGGTGAGTAG; listed as DNA, chemistry not fully specified)	50	46.17	317.8	
H-KKK-JTTTTJJJ-OOO-CCCTTTTCAAGGTGAGTAG-KKK-NH2 [γmCF PNA-h] (NTTTTNNNCCCTTTTCAAGGTGAGTAG; all [PNA-N], the base at N not given here; lysine tripeptides at both ends, OOO linker, some gamma-modified PNA monomers, further chemistry not fully specified) [tail clamp PNA targeting mouse CFTR gene with MPγ monomers in Hoogsteen domain]	79	36.17	349.1	No significant differences in the histology of the nasal epithelia
